From patent publication US20120052010A1, “IMAGING TUMOR PERFUSION, OXIDATIVE […] DYNAMIC ACE PET IN PATIENTS WITH HEAD AND NECK CANCER DURING RADIOTHERAPY” (GE HEALTHCARE LIMITED, priority 2009, published 2012)
Values joined by “and” are separate entries in the source; they are usually repeats but may differ in a detail not shown here. Equal values may be shown once.

Columns and labels:
[1] = system: primary tumor, squamous cell carcinoma of the head and neck; experiment: Dynamic ACE PET, tumor clearance rate of [11C] (tumor oxidative metabolism, OXm); type: in vivo, human
Description: Twenty nine dynamic ACE PET scans were performed in the nine patients. Five patients were scanned with a dedicated PET device (Siemens ECAT HR^+, Knoxyille, Tenn., USA) and PET images were coregistered to dose-planning CT images for anatomical localization. Four patients were scanned with a hybrid PET-CT device (GE Discovery ST, Milwaukee, Wis., USA). ACE PET was studied in all patients within 7 days before the start of radiotherapy (baseline). Due to logistic problems not all patients could be scanned at all subsequent time points. Five patients were scanned after a mean dose of 15 Gy (dose range 9.6-20Gy), 7 patients after a mean dose of 30 Gy (range 24-37Gy) and 8 patients after a mean dose of 55 Gy (range 42-68Gy).
(§1) Ten minutes after the heart scan, the head and neck region was imaged immediately after an intravenous bolus injection of 10 MBq/kg body weight ACE. The scan time was 32 minutes with time frames 12×5 seconds (s), 6×10 s, 4×30 s, 4×60 s, 2×120 s and […].
Primary tumors were clearly visualized in all scans. A time-activity curve (TAC) of the primary tumor was obtained from a region of interest (ROI) delineating the highest uptake in all ACE scans. TACs were analyzed by fitting an exponential curve to the data collected between 4 and 32 min Tumor oxidative metabolism was derived from the below equation.
where Y is the tumor radioactivity (Bq/cc), A is a constant, t is time (min), and OXm is the clearance rate of [^11C] in min^−1. The average R^2 of the fit was 0.93.

[2] = system: primary tumor, squamous cell carcinoma of the head and neck; experiment: Dynamic ACE PET, tumor perfusion (absolute extraction rate and relative perfusion index rF); type: in vivo, human
Description: In a subset of ACE scan sessions (n=23) an image-derived arterial input function for absolute quantification of tumor perfusion was acquired by dynamic imaging of the heart immediately after injection of a 0.5 MBq/kg body weight ACE bolus.
as §1
The arterial blood input function was derived by placing a small ROI in the left ventricular cavity of the heart scan to obtain a TAC of the first pass of the bolus. Arterial blood activities were integrated by the area-under-the-curve of the first bolus passage through the chamber and normalized to the injected dose of the subsequent tumor scan.
The peak activity of the primary tumor deposited at the end of the first bolus pass was assessed. The absolute extraction rate (in mL/min/mL tissue) was calculated by dividing the first-pass peak tumor activity by the arterial blood integral, assuming that systemic circulation was unaltered between the heart and tumor scan. As the arterial input was not obtained in all sessions, a relative perfusion index (rF) was quantified by the ratio of initial peak retention in the tumor to that of the cerebellum. […] Absolute quantification of tumor perfusion in 23 scans yielded a mean of 0.47±0.01 mL/min/mL The mean of simultaneous rF measurements was 5.87±0.39 and the two methods were linearly correlated (r=0.57, p=0.005).

[3] = resting normal volunteers, myocardial O2 consumption 3-4 micromole/min/gram; cited from earlier work
[4] = system: primary tumor, squamous cell carcinoma of the head and neck; experiment: FDG-PET tumor glucose uptake (Tglu); type: in vivo, human
Description: FDG-PET was performed at baseline using a standard clinical whole-body protocol, in which the head and neck area was scanned one hour after intravenous injection of 5 MBq/kg body weight FDG. Baseline ACE and FDG scans were performed on the same or adjacent days.
Whole-body scanning was performed one hour after intravenous injection of 5 MBq/kg body weight FDG. Six patients were examined by PET/CT and four patients were studied by PET alone. The patients were instructed to remain recumbent and avoid voicing and other uses of neck muscles during the uptake period.
Tumor glucose uptake (Tglu) was measured from the FDG data as standard uptake values (SUV), determined by the radioactivity concentration of the tumor ROI, divided by injected activity per gram body weight.

C[11C](=O)O [ACE, 1-[^11C]-Acetate]
OXm, Mean ± SE ([1]; CR group, 15 Gy, N=4): 0.0142 min⁻¹
OXm, Mean ± SE ([1]; CR group, 30 Gy, N=4): 0.0144 min⁻¹
OXm, Mean ± SE ([1]; CR group, 55 Gy, N=5): 0.0140 min⁻¹
OXm, Mean ± SE ([1]; CR group, Baseline, N=6): 0.0122 min⁻¹
OXm, Mean ± SE ([1]; PR group, 30 Gy, N=3): 0.0126 min⁻¹
OXm, Mean ± SE ([1]; PR group, 55 Gy, N=3): 0.0110 min⁻¹
OXm, Mean ± SE ([1]; PR group, Baseline, N=3): 0.0065 min⁻¹
mean of simultaneous rF measurements ([2]; 23 scans with absolute quantification): 5.87±0.39
absolute quantification of tumor perfusion (absolute ACE extraction rate), mean ([2]; 23 scans, arterial input from left ventricular blood pool imaging): 0.47 mL/min/mL and 0.47±0.01 mL/min/mL
rF, Mean ± SE ([2]; CR group, 15 Gy): 7.87
rF, Mean ± SE ([2]; CR group, 30 Gy): 7.29
rF, Mean ± SE ([2]; CR group, 55 Gy): 5.00
rF, Mean ± SE ([2]; CR group, Baseline): 5.68
rF, Mean ± SE ([2]; PR group, 30 Gy): 6.61
rF, Mean ± SE ([2]; PR group, 55 Gy): 4.51
rF, Mean ± SE ([2]; PR group, Baseline): 6.42
extraction rate in cerebellum (reference region) ([2]; all patients): 0.08±0.03 mL/min/mL
primary tumor rF (relative perfusion) ([2]; individual patients (CR and PR), 15 Gy): 6.93 and 5.00 and 8.22 and 7.07 and 9.25
primary tumor rF (relative perfusion) ([2]; individual patients (CR and PR), 30 Gy): 8.51 and 7.39 and 8.48 and 3.95 and 8.06 and 6.54 and 6.05
primary tumor rF (relative perfusion) ([2]; individual patients (CR and PR), 55 Gy): 5.78 and 5.00 and 6.34 and 2.20 and 2.81 and 7.76 and 3.64
primary tumor rF (relative perfusion, tumor/cerebellum initial peak retention) ([2]; individual patients (CR and PR), Baseline): 4.10 and 7.63 and 6.47 and 5.17 and 6.26 and 4.90 and 3.96 and 5.91 and 8.93
OXm values in myocardium [3]: 0.05 to 0.07 min⁻¹

OC[C@H]1OC(O)[C@H]([18F])[C@@H](O)[C@@H]1O (stereo partly drawn) [FDG, ^18F-fluoro-2-deoxy-D-glucose]
Tglu (tumor glucose uptake, standard uptake value) ([4]; individual patients, baseline FDG-PET, one hour after i.v. 5 MBq/kg FDG): 4.6 SUV and 13.4 SUV and 8.5 SUV and 6.8 SUV and 4.9 SUV and 16.3 SUV and 13.8 SUV and 3.9 SUV and 26.1 SUV
Tglu, all primary tumors ([4]; nine patients, baseline): 10.9±2.4 SUV
